Ki data for 23 compounds are collected here from patent US9365583B2, “Substituted pyrazoles and uses thereof” (Genentech, Inc., priority 2013, dated 2016).

The assay addresses T1, N-terminally GST-tagged DLK (catalytic domain amino acid 1-520) (Homo sapiens, UniProt Q12852).
T1 construct: N-terminally GST-tagged DLK (catalytic domain amino acid 1-520); purchased Carna Bioscience
T1 sequence (Q12852 1-520): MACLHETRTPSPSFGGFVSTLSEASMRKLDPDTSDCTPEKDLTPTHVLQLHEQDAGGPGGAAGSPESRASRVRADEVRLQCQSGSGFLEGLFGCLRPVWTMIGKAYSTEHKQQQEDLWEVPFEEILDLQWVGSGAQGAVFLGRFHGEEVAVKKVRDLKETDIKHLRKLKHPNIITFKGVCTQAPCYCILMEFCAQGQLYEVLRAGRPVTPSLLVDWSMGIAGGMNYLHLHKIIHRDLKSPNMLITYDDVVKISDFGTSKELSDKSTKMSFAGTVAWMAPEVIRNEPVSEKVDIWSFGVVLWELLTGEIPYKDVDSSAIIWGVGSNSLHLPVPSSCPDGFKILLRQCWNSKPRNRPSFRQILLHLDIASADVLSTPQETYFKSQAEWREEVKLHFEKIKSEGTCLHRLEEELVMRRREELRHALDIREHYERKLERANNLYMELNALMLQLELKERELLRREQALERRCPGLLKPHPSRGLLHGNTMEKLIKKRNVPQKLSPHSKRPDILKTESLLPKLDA
The assay can be described thus: DLK TR-FRET inhibition assay. Type of assay: biochemical. As to conditions: 5 nM GST-DLK, 40 nM HIS-MKK4 K131M substrate, 30 μM ATP, 60 minutes at ambient temperature. The method in brief: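 5 nM GST-DLK (aa 1-520), 40 nM HIS-MKK4 K131M and 30 μM ATP reacted 60 min at ambient temperature in HEPES pH 7.5 buffer with 10 mM MgCl2, compound 1:3 serially diluted from 20 uM. TR-FRET detection of phospho-MKK4 used Eu-cryptate anti-phospho-MKK4 plus D2 anti-HIS, read after 3 h (665/615 nm).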
On the technique in general: TR-FRET usually uses a lanthanide donor and a delayed reading to cut background.
For `CC(C)n1nc(-c2cnc(N)c(OC(F)F)c2)cc1[C@H]1[C@@H]2C[C@@H](N3CCN4CCCC4C3)C[C@@H]21` (stereo partly drawn) [compound 88, 3-(difluoromethoxy)-5-(5-((1R,3s,5S,6r)-3-(hexahydropyrrolo [1,2-a]pyrazin-2(1H)-yl)bicyclo [3.1.0]hexan-6-yl)-1-isopropyl-1H-pyrazol-3-yl)pyridin-2-amine], the affinity, expressed as Ki, was 1.4 nM.
In the case of `CC(C)n1nc(-c2cnc(N)c(C(F)(F)F)c2)cc1[C@H]1[C@@H]2C[C@H](n3ccnc3)C[C@@H]21` [compound 115, 5-(5-((1R,3r,5S,6r)-3-(1H-imidazol-1-yl)bicyclo[3.1.0]hexan-6-yl)-1-isopropyl-1H-pyrazol-3-yl)-3-(trifluoromethyl)pyridin-2-amine], affinity was put at a Ki of 9.19 nM.
For `CC(C)n1nc(-c2cnc(N)c(C(F)(F)F)c2)cc1[C@H]1[C@@H]2C[C@H](N3CCCN(C)CC3)C[C@@H]21` [compound 211, 5-(1-isopropyl-5-((1R,3r,5S,6r)-3-(4-methyl-1,4-diazepan-1-yl)bicyclo[3.1.0]hexan-6-yl)-1H-pyrazol-3-yl)-3-(trifluoromethyl) pyridin-2-amine], the affinity, expressed as Ki, was 3.2 nM.
With `CC(C)n1nc(-c2cnc(N)c(OC(F)F)c2)cc1[C@H]1[C@@H]2CC3(CCO3)C[C@@H]21` (stereo partly drawn) [compound 92, 3-(difluoromethoxy)-5-(1-isopropyl-5-((1 R,5S,6r)-spiro[bicyclo [3.1.0]hexane-3,2′-oxetan]-6-yl)-1H-pyrazol-3-yl)pyridin-2-amine], the affinity corresponds to a Ki of 9.4 nM.
The result for `Nc1ncc(-c2cc([C@H]3[C@@H]4C[C@@H](N5CCCOCC5)C[C@@H]43)n(CC(F)F)n2)cc1OC(F)F` [compound 232, 5-(5-((1R,3s,5S,6r)-3-(1,4-oxazepan-4-yl)bicyclo[3.1.0]hexan-6-yl)-1-(2,2-difluoroethyl)-1H-pyrazol-3-yl)-3-(difluoromethoxy) pyridin-2-amine] reads 1.1 nM; that for `CO[C@H]1CCN([C@H]2C[C@@H]3[C@H](C2)[C@H]3c2cc(-c3cnc(N)c(C(F)(F)F)c3)nn2CC(F)F)C1` [compound 145, 5-(1-(2,2-difluoroethyl)-5-((1R,3r,5S,6S)-3-((S)-3-methoxypyrrolidin-1-yl)bicyclo[3.1.0]hexan-6-yl)-1H-pyrazol-3-yl)-3-(trifluoro-methyl)pyridin-2-amine], 3.3 nM.
`CC(C)n1nc(-c2cnc(N)c(C(F)(F)F)c2)cc1[C@H]1[C@@H]2C[C@@H](N3CCN(C)C4(COC4)C3)C[C@@H]21` [compound 180, 5-(1-isopropyl-5-((1R,3s,5S,6r)-3-(5-methyl-2-oxa-5,8-diazaspiro [3.5]nonan-8-yl)bicyclo[3.1.0]hexan-6-yl)-1H-pyrazol-3-yl)-3-(trifluoromethyl)pyridin-2-amine]: the affinity corresponds to a Ki of 5.8 nM.
On to `CC(C)n1nc(-c2cnc(N)c(C(F)(F)F)c2)cc1[C@@H]1[C@H]2CC[C@H](O)[C@H]21` (single isomer, unassigned) [compound 142, 6-(3-(6-amino-5-trifluoromethylpyridin-3-yl)-1-isopropyl-1H-pyrazol-5-yl)bicyclo[3.1.0]hexan-2-ol], for which the Ki (as a rule, the equilibrium dissociation constant of an inhibitor or competing ligand from its target) came to 62.2 nM.
Consider `CC(C)N1CCN([C@H]2C[C@@H]3[C@H](C2)[C@H]3c2cc(-c3cnc(N)c(OC(F)F)c3)nn2C(C)C)CC1` [compound 177, 3-(difluoromethoxy)-5-(1-isopropyl-5-((1R,3r,5S,6r)-3-(4-isopropyl-piperazin-1-yl)bicyclo[3.1.0]hexan-6-yl)-1H-pyrazol-3-yl) pyridin-2-amine], for which the affinity corresponds to a Ki of 1.1 nM.
`CC(C)n1nc(-c2cnc3ccn([C@@H](C)c4ccccn4)c3c2)cc1[C@H]1[C@@H]2C[C@H](N3CCOCC3)C[C@@H]21` [compound 27, 4-((1R,3S,5S,6r)-6-(1-isopropyl-3-(1-((S)-1-(pyridin-2-yl)ethyl)-1H-pyrrolo[3,2-b]pyridin-6-yl)-1H-pyrazol-5-yl)bicyclo[3.1.0]hexan-3-yl)morpholine] displayed a Ki of 0.14 nM.
In the case of `CC(C)n1nc(-c2cnc(N)c(OC(F)F)c2)cc1[C@H]1[C@@H]2C[C@H](N3C[C@@H]4C[C@H]3CN4C)C[C@@H]21` [compound 202, 3-(difluoromethoxy)-5-(1-isopropyl-5-((1R,3r,5S,6S)-3-((1S,4S)-5-methyl-2,5-diazabicyclo[2.2.1]heptan-2-yl)bicyclo[3.1.0]hexan-6-yl)-1H-pyrazol-3-yl) pyridin-2-amine], affinity was put at a Ki of 1.2 nM.
In the case of `CCN1CCN([C@H]2C[C@@H]3[C@H](C2)[C@H]3c2cc(-c3cnc(N)c(C(F)(F)F)c3)nn2C(C)C)CC1` [compound 16, 5-(5-((1R,3r,5S,6r)-3-(4-ethylpiperazin-1-yl)bicyclo[3.1.0]hexan-6-yl)-1-isopropyl-1H-pyrazol-3-yl)-3-(trifluoromethyl)pyridin-2-amine], the Ki was determined as 9.1 nM.
Then `Nc1ncc(-c2cc([C@H]3[C@@H]4C[C@@H](N5CCOCC5)C[C@@H]43)n(CC3CCC3)n2)cc1OC(F)F` [compound 128, 5-(1-(cyclobutylmethyl)-5-((1R, 3s,5S,6r)-3-morpholinobicyclo [3.1.0]hexan-6-yl)-1H-pyrazol-3-yl)-3-(difluoromethoxy)pyridin-2-amine], with 5.06 nM.
`COCC1(F)CCN(C2C[C@@H]3C(c4cc(-c5cnc(N)c(OC(F)F)c5)nn4C(C)C)[C@@H]3C2)C1` (single isomer, unassigned) [compound 171] had a Ki of 5.4 nM.
Regarding `CO[C@H]1CCN([C@H]2C[C@@H]3[C@H](C2)[C@H]3c2cc(-c3cnc(N)c(OC(F)F)c3)nn2CC2CC2)C1` [compound 158, 5-(1-(cyclopropylmcthyl)-5-((1R,3r,5S,6S)-3-((S)-3-methoxy-pyrrolidin-1-yl)bicyclo[3.1.0]hexan-6-yl)-1H-pyrazol-3-yl)-3-(difluoromethoxy)pyridin-2-amine], the Ki was determined as 1.2 nM.
As for `CC(C)n1nc(-c2cnc(N)c(OC(F)F)c2)cc1[C@H]1[C@@H]2C[C@H](N3C[C@@H](F)[C@@H](F)C3)C[C@@H]21` [compound 118, 3-(difluoromethoxy)-5-(5-((1R,3r,5S,6R)-3-((3S,4R)-3,4-difluoro-pyrrolidin-1-yl)bicyclo[3.1.0]hexan-6-yl)-1-isopropyl-1H-pyrazol-3-yl)pyridin-2-amine], the Ki turned out to be 3.75 nM.
The result for `CC(=O)N(C)[C@H]1C[C@@H]2[C@H](C1)[C@H]2c1cc(-c2cnc(N)c(C(F)(F)F)c2)nn1C(C)C` [compound 182, N-((1R,5S,6r)-6-(3-(6-amino-5-(trifluoromethyl)pyridin-3-yl)-1-isopropyl-1H-pyrazol-5-yl)bicyclo [3.1.0]hexan-3-yl)-N-methylacetamide] reads 3 nM; that for `CC(C)n1nc(-c2cnc(N)c(C(F)(F)F)c2)cc1[C@H]1[C@@H]2C[C@@H](N3CCN4CCCC4C3)C[C@@H]21` (single isomer, unassigned) [compound 263], 1 nM; that for `CC(C)n1nc(-c2cnc(N)c(OC(F)F)c2)cc1[C@H]1[C@@H]2C[C@@H](N3CC4(CN(C)CCO4)C3)C[C@@H]21` [compound 224, 3-(difluoromethoxy)-5-(1-isopropyl-5-((1R,3s,5S,6r)-3-(8-methyl-5-oxa-2,8-diazaspiro[3.5]nonan-2-yl)bicyclo[3.1.0]hexan-6-yl)-1H-pyrazol-3-yl)pyridin-2-amine], 3.8 nM.
The result for `CC(C)n1nc(-c2cnc(N)c(OC(F)(F)F)c2)cc1[C@H]1[C@@H]2C[C@@H](N3CC(F)C3)C[C@@H]21` [compound 28, 5-(5-((1R,3s,5S,6r)-3-(3-fluoro-azetidin-1-yl)bicyclo[3.1.0]hexan-6-yl)-1-isopropyl-1H-pyrazol-3-yl)-3-(trifluoromethoxy) pyridin-2-amine] reads 2.54 nM; that for `CC(C)n1nc(-c2cnc(N)c(OC(F)(F)F)c2)cc1[C@H]1[C@@H]2C[C@@H](N3CCOCC3)C[C@@H]21` [compound 68, 5-(1-isopropyl-5-((1R,3s,5S,6r)-3-morpholinobicyclo[3.1.0]hexan-6-yl)-1H-pyrazol-3-yl)-3-(trifluoromethoxy)pyridin-2-amine], 1.2 nM; that for `CC(C)n1nc(-c2cnc(N)c(C(F)(F)F)c2)cc1[C@H]1[C@@H]2C[C@H](N3CCN(C)C[C@@H]3C)C[C@@H]21` [compound 242, 5-(5-((1R,3r,5S,6S)-3-((S)-2,4-dimethylpiperazin-1-yl)bicyclo [3.1.0]hexan-6-yl)-1-isopropyl-1H-pyrazol-3-yl)-3-(trifluoromethyl) pyridin-2-amine], 2.1 nM.
As for `CC(C)N1CCN([C@@H]2C[C@@H]3[C@H](C2)[C@H]3c2cc(-c3cnc(N)c(OC(F)F)c3)nn2C(C)C)CC1` [compound 176, 3-(difluoromethoxy)-5-(1-isopropyl-5-((1R,3s,5S,6r)-3-(4-isopropyl-piperazin-1-yl)bicyclo[3.1.0]hexan-6-yl)-1H-pyrazol-3-yl) pyridin-2-amine], the Ki was determined as 1.8 nM.
